Reference: PMC9482650, “Quantitative fragmentomics allow affinity mapping of interactomes” (Nature Communications, 2022)
Ends that are not written are not given here.

Columns and labels:
Experiment in all cases: Holdup assay
Assay type in all cases: binding
LNX1_2 PDZ = LNX1_2 PDZ (Homo sapiens, UniProt Q8TBB1); details: composite holdup affinity; 0.00=below quantification threshold; read-out: COMP pKd (converted)
FRMPD3 PDZ = FRMPD3 PDZ (Homo sapiens, UniProt Q5JV73); details: composite holdup affinity; 0.00=below quantification threshold; read-out: COMP pKd (converted)
FRMPD2_3 PDZ = FRMPD2_3 PDZ (Homo sapiens, UniProt Q68DX3); details: composite holdup affinity; 0.00=below quantification threshold; read-out: COMP pKd (converted)
LIMK2 PDZ = LIMK2 PDZ (Homo sapiens, UniProt P53671); details: composite holdup affinity; 0.00=below quantification threshold; read-out: COMP pKd (converted)
MAGI2_6 PDZ = MAGI2_6 PDZ (Homo sapiens, UniProt Q86UL8); details: composite holdup affinity; 0.00=below quantification threshold; read-out: COMP pKd (converted)
LIN7A PDZ = LIN7A PDZ (Homo sapiens, UniProt O14910); details: composite holdup affinity; 0.00=below quantification threshold; read-out: COMP pKd (converted)
LIN7B PDZ = LIN7B PDZ (Homo sapiens, UniProt Q9HAP6); details: composite holdup affinity; 0.00=below quantification threshold; read-out: COMP pKd (converted)
MAGIX PDZ = MAGIX PDZ (Homo sapiens, UniProt Q9H6Y5); details: sheet PPI_convert; read-out: affinity to PDZ MAGIX (converted)
Excerpt: Supplement 41467_2022_33018_MOESM4_ESM.xlsx, sheet "PPI_convert" | column: MAGIX

GRASP PDZ = GRASP PDZ (Homo sapiens, UniProt Q7Z6J2); details: composite holdup affinity; 0.00=below quantification threshold; read-out: COMP pKd (converted)
MAGI1_5 PDZ = MAGI1_5 PDZ (Homo sapiens, UniProt Q96QZ7); details: sheet PPI_convert; read-out: affinity to PDZ MAGI1_5 (converted)
DVL2 PDZ = DVL2 PDZ (Homo sapiens, UniProt O14641); details: sheet PPI_convert; read-out: affinity to PDZ DVL2 (converted)
PDZD2_3 PDZ = PDZD2_3 PDZ (Homo sapiens, UniProt O15018); details: sheet PPI_convert; read-out: affinity to PDZ PDZD2_3 (converted)
CNKSR1 PDZ = CNKSR1 PDZ (Homo sapiens, UniProt Q969H4); details: sheet PPI_convert; read-out: affinity to PDZ CNKSR1 (converted)
Excerpt: Supplement 41467_2022_33018_MOESM4_ESM.xlsx, sheet "PPI_convert" | column: CNKSR1

DVL1 PDZ = DVL1 PDZ (Homo sapiens, UniProt O14640); details: sheet PPI_convert; read-out: affinity to PDZ DVL1 (converted)
RADIL PDZ = RADIL PDZ (Homo sapiens, UniProt Q96JH8); details: composite holdup affinity; 0.00=below quantification threshold; read-out: COMP pKd (converted)
DLG5_2 PDZ = DLG5_2 PDZ (Homo sapiens, UniProt Q8TDM6); details: sheet PPI_convert; read-out: affinity to PDZ DLG5_2 (converted)
Sequence of DLG5_2 PDZ (Q8TDM6 705-796 limits assumed): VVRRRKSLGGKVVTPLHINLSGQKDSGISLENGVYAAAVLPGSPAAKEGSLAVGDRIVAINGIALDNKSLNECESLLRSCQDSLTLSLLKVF

Sequence of DVL1 PDZ (O14640 251-323 limits assumed): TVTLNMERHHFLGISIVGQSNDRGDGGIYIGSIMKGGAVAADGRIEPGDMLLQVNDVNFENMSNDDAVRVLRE
Sequence of DVL2 PDZ (O14641 267-339 limits assumed): as the sequence (O14640 251-323 limits assumed) above, with R8K, H9Y, H10N, D22E, V57M, E73D counted along it
Sequence of LNX1_2 PDZ (Q8TBB1 381-464 limits assumed): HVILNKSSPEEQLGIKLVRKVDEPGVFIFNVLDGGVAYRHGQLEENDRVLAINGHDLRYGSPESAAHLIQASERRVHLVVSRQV
Sequence of MAGI2_6 PDZ (Q86UL8 1147-1229 limits assumed): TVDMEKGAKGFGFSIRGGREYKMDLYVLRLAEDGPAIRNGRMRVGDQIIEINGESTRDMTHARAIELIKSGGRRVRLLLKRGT
Sequence of GRASP PDZ (Q7Z6J2 101-190 limits assumed): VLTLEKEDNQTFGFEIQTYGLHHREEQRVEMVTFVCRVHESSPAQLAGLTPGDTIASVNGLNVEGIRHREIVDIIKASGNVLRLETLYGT
Sequence of PDZD2_3 PDZ (O15018 586-672 limits assumed): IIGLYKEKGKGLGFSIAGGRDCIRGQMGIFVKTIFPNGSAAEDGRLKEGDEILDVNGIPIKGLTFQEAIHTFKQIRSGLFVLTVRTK
Sequence of MAGI1_5 PDZ (Q96QZ7 970-1066 limits assumed): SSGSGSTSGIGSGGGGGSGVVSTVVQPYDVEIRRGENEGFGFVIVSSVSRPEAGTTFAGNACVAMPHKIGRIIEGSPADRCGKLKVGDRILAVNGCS
Sequence of LIMK2 PDZ (P53671 152-239 limits assumed): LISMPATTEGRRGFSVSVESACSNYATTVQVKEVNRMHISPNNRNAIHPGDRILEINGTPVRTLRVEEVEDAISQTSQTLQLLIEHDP
Sequence of FRMPD3 PDZ (Q5JV73 21-98 limits assumed): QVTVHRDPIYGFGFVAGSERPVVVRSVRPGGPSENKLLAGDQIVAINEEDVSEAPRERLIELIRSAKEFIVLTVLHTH
Sequence of LIN7B PDZ (Q9HAP6 93-175 limits assumed): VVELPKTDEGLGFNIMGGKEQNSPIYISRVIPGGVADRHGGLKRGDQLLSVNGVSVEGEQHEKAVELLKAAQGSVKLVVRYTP
Sequence of CNKSR1 PDZ (Q969H4 196-285 limits assumed): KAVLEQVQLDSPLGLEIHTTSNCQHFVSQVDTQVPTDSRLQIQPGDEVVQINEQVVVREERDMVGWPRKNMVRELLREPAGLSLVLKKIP
Sequence of MAGIX PDZ (Q9H6Y5 125-209): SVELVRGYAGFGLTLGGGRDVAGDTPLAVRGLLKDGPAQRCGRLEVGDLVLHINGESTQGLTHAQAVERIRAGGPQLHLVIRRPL
Sequence of RADIL PDZ (Q96JH8 976-1061 limits assumed): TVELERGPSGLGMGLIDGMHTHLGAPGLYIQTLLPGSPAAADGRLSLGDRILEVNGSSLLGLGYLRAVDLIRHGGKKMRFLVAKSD
Sequence of FRMPD2_3 PDZ (Q68DX3 1079-1167 limits assumed): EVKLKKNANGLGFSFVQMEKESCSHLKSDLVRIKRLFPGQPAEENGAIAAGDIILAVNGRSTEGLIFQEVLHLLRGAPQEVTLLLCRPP
Sequence of LIN7A PDZ (O14910 108-190 limits assumed): as the sequence (Q9HAP6 93-175 limits assumed) above, with I15V, V30I, D37E, Q60H, Q72K, G73D counted along it

In the case of RHTTSTETAV [HPV30-E6], the Kd (LNX1_2 PDZ) is reported as 214 µM, the Kd (FRMPD3 PDZ) is reported as 174 µM and the Kd (FRMPD2_3 PDZ) is reported as 135 µM. For the same sequence, the Kd (LIMK2 PDZ) was 141 µM, the Kd (MAGI2_6 PDZ) was 64.6 µM and the Kd (LIN7A PDZ) was 158 µM. For the same sequence, the Kd (LIN7B PDZ) was 195 µM, the Kd (MAGIX PDZ) was 4.47 µM and the Kd (GRASP PDZ) was 110 µM. It also gave a Kd (MAGI1_5 PDZ) of 9.55 µM.

With RTRQRNETQV [HPV51-E6] the Kd (DVL2 PDZ) was 25.7 µM, the Kd (PDZD2_3 PDZ) was 60.3 µM and the Kd (CNKSR1 PDZ) was 36.3 µM. The Kd (DVL1 PDZ) was 13.8 µM, the Kd (RADIL PDZ) was 151 µM and the Kd (DLG5_2 PDZ) was 23.4 µM.
